Assay results from patent publication US4851521A, “Esters of hyaluronic acid” (priority 1985, dated 1989).

Experiments:
[1] = system: dextran-induced aseptic (exudative) phlogosis in rabbit eye; experiment: Anti-inflammatory activity: dextran-induced aseptic (exudative) phlogosis in rabbit eye; assay type: in vivo; conditions: for eyes without signs of phlogosis out of the total number of eyes treated: 3 drops every 6 hours, 4 treated eyes; for antiinflammatory activity (in words): compared with the corresponding cortisones
Description: 9 hyaluronic esters of cortisone, hydrocortisone and fluorocortisone (9 fluorohydrocortisone) identified by the code names HYC1-HYC9 were tested. Table 1 describes these compounds and gives the percentages of the number of carboxylic groups of HY which are esterified with the above corticosteroids, and where applicable the percentage esterified with simple aliphatic alcohols and those salified with alkaline metals (Na):
Aseptic (exudative) phlogosis was induced in 48 rabbits by intraocular injection of dextran (1% in saline, 0.1 ml). The various products were administered by instillation in the right eye (RE) of the rabbits, while in the left eye (LE) only vehicle was instilled.
The treament (3 drops every 6 hours) was begun immediately after the injection of dextran and was continued for 16 days.
Both eyes of each rabbit were observed through a slit lamp. In particular the following were examined: the state of the conjunctiva and corneal epithelium, the anterior chamber (presence of Tyndall effect), state of the iris and of the posterior segment of the eye. With a Goldmann lens, the state of the back of the eye was examined. The presence of signs of inflammation (hyperemia, exudate, cloudiness of the liquids, etc.) was recorded.
Values are expressed as percentages (number of eyes without signs of phlogosis out of the total number of eyes treated). In brackets are the number of treated eyes.

[2] = Absorption and bioavailability: plasma levels of hydrocortisone in rats; assay type: in vivo, male Sprague-Dawley rats
Description: Male Sprague-Dawley rats, with a body weight of 250-350 gr were used, obtained from Charles River-Calco (Como), fed ad libitum with water and compound feed in pellets, with the code name of 4RF 21, produced by "Italiana Mangimi", licensee of Charles River.
Hydrocortisone was administered in the form of sodium hemisuccinate salt at the dose of 1.34 mg/kg (corresponding to 1 mg/kg of hydrocortisone base) by general intravenous route and at the dose of 1.34 mg/kg and 2.68 mg/ kg (corresponding to 2 mg/ kg of hydrocortisone base) by subcutaneouos route (the i.v. route was considered in order to determine the pharmacokinetic parameters which serve as a comparison for the evaluation of absorption of any other administration route).
The three HYC derivatives were administered by subcutaneous route at the dose of 6.5 and 13 mg/kg (doses corresponding to about 1 and 2 mg/kg in hydrocortisone base). […] All the compounds were injected at a constant volume of 1 ml/kg.
After administration, 0.3 ml of blood was drawn from each animal by cardiac puncture in the presence of anticoagulant (sodium heparin).
Blood drawing times were as follows: *15 mins, 30 mins, 60 mins, 120 mins, 180 min, 300 mins, 360 mins, 420 mins, 480 mins (*limited to the intraveneous route).
The hydrocortisone was dosed by radioimmunoassay method (Cortisolo Kit, Biodata, cod. 10394) using iodate tracing. […] The linearity of the method comes between 1 and 1000 ng/ml. The observation limit is 1 ng/ml.
The dosage of the cortisolemia in the rat is not influenced either by the base levels or by the circadian rhythms of this hormone, as the metabolic pattern of the endogenous glucocorticoid hormones in the rat, leads to the production of corticosterone and not cortisol (see E. L. Green: Biology of the laboratory mouse.)
In Table 3 are reported the results of the average plasma levels of hydrocortisone, after i.v. and s.c. injection (1 and 2 mg/kg). […] In Table 4 are reported the pharmacokinetic parameters of cortisol calculated graphically from the plasmatic decline curves. In Table 3 are reported the average levels of cortisol after subcutaneous administration of the three HYC derivatives at doses of 6.5 and 13 mg/kg (corresponding to about 1 and 2 mg/kg in hydrocortisone base). In Table 4 are reported the pharmacokinetic parameters relative to cortisol calculated graphically with the method of residues from the plasma absorption curve of the three HYC products.

[3] = 10 days from start of phlogosis
[4] = 12 days from start of phlogosis
[5] = 14 days from start of phlogosis
[6] = 16 days from start of phlogosis

| Compound | eyes without signs of phlogosis out of the total number of eyes treated ([1]; 2 days from start of phlogosis) [%] | eyes without signs of phlogosis out of the total number of eyes treated ([1]; 4 days from start of phlogosis) [%] | eyes without signs of phlogosis out of the total number of eyes treated ([1]; 6 days from start of phlogosis) [%] | eyes without signs of phlogosis out of the total number of eyes treated ([1]; 8 days from start of phlogosis) [%] | eyes without signs of phlogosis out of the total number of eyes treated [1, 3] [%] | eyes without signs of phlogosis out of the total number of eyes treated [1, 4] [%] | eyes without signs of phlogosis out of the total number of eyes treated [1, 5] [%] | eyes without signs of phlogosis out of the total number of eyes treated [1, 6] [%] | linearity of kinetics (in words) ([2]; cortisol plasma kinetics, dose dependence) | Cmax (in words) ([2]; rat, in vivo) | Tmax ([2]; rat, in vivo, sc) [min] | AUC at 8 h ([2]; rat, in vivo, sc, 1 mg/kg) [ng·h/mL] | Tmax ([2]; rat, in vivo, sc, 1 mg/kg) [min] | bioavailability ([2]; rat, in vivo, sc, 1 mg/kg) [%] | half-life ([2]; rat, in vivo, sc, 1 mg/kg) [min] | k el ([2]; rat, in vivo, sc, 1 mg/kg) [s⁻¹] | antiinflammatory activity (in words) [1] |
| --- | --- | --- | --- | --- | --- | --- | --- | --- | --- | --- | --- | --- | --- | --- | --- | --- | --- |
| C[C@]12CCC(=O)C=C1CC[C@@H]1[C@@H]2C(=O)C[C@@]2(C)[C@H]1CC[C@]2(O)C(=O)CO [Cortisone, cortisone, reference compound] | 0.0 | 0.0 | 0.0 | 0.0 | 25.0 | 50.0 | 100.0 | 100.0 |  |  |  |  |  |  |  |  |  |
| C[C@]12CCC(=O)C=C1CC[C@H]1[C@@H]3CC[C@](O)(C(=O)CO)[C@@]3(C)C[C@H](O)[C@@]12F [Fluorocortis., 9 fluorohydrocortisone, reference compound] | 0.0 | 0.0 | 0.0 | 0.0 | 25.0 | 50.0 | 100.0 | 100.0 |  |  |  |  |  |  |  |  |  |
| C[C@]12CCC(=O)C=C1CC[C@@H]1[C@@H]2[C@@H](O)C[C@@]2(C)[C@H]1CC[C@]2(O)C(=O)CO [Hydrocortisone, hydrocortisone, reference compound] | 0.0 | 0.0 | 0.0 | 25.0 | 25.0 | 50.0 | 100.0 | 100.0 | linear | the same as the i.v. route levels at the same dose | ~30 | 192 | 30 | 70.3 | 270 | 4.17e-05 |  |
| (mixed ethanol and cortisone ester (C21) of hyaluronic acid (HY) [HYC4] | 0.0 | 0.0 | 25.0 | 50.0 | 50.0 | 100.0 | 100.0 | 100.0 |  |  |  |  |  |  |  |  | most efficient of these derivatives |
| (mixed) ethanol and fluorocortisone ester (C21) of hyaluronic acid (HY) [HYC6] | 0.0 | 0.0 | 25.0 | 50.0 | 50.0 | 100.0 | 100.0 | 100.0 |  |  |  |  |  |  |  |  | most efficient of these derivatives |
| (partial and mixed) ethanol and cortisone ester of hyaluronic acid (HY) [HYC7] | 0.0 | 0.0 | 0.0 | 25.0 | 50.0 | 100.0 | 100.0 | 100.0 |  |  |  |  |  |  |  |  |  |
| (partial and mixed) ethanol and fluorocortisone esters (C21) of hyaluronic acid (HY) [HYC9] | 0.0 | 0.0 | 0.0 | 25.0 | 25.0 | 50.0 | 100.0 | 100.0 |  |  |  |  |  |  |  |  |  |
| (partial) cortisone ester C21) of hyaluronic acid (HY) [HYC1] | 0.0 | 0.0 | 0.0 | 25.0 | 50.0 | 50.0 | 100.0 | 100.0 |  |  |  |  |  |  |  |  |  |
| (partial) fluorocortisone ester (C21) of hyaluronic acid (HY) [HYC3] | 0.0 | 0.0 | 0.0 | 25.0 | 25.0 | 100.0 | 100.0 | 100.0 |  |  |  |  |  |  |  |  |  |
